The record followed here is patent US20210094971A1, “HETEROCYCLIC COMPOUNDS” (Hoffmann-La Roche Inc., priority 2019, published 2021).

The experiment has as its target T1, MAGL (Homo sapiens, UniProt Q99685).
T1 sequence (Q99685 1-303): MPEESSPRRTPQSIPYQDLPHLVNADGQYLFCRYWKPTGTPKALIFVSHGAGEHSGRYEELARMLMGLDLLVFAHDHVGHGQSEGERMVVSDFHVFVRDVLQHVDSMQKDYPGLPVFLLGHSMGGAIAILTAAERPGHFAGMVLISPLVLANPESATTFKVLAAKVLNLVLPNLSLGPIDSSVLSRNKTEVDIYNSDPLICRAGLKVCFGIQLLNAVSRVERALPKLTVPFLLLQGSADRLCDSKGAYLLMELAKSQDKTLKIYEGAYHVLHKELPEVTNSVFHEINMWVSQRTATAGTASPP
Nature of the experiment: 2-AG assay (MAGL inhibitory activity, hydrolysis of 2-arachidonoylglycerol followed by mass spectrometry). Format: biochemical. To be noted: 50 pM MAGL, 8 μM 2-arachidonoylglycerol, 15 min pre-incubation, 30 min incubation at RT. The procedure: Compounds were profiled for MAGL inhibitory activity by determining the enzymatic activity by following the hydrolysis of the natural substrate 2-arachidonoylglycerol resulting in arachidonic acid, which can be followed by mass spectrometry. This assay is hereinafter abbreviated “2-AG assay”.
The 2-AG assay was carried out in 384 well assay plates (PP, Greiner Cat# 784201) in a total volume of 20 μL. Compound dilutions were made in 100% DMSO (VWR Chemicals 23500.297) in a polypropylene plate in 3-fold dilution steps to give a final concentration range in the assay from 12.5 μM to 0.8 pM. 0.25 μL compound dilutions (100% DMSO) were added to 9 μL MAGL in assay buffer (50 mM TRIS (GIBCO, 15567-027), 1 mM EDTA (Fluka, 03690-100 ml), 0.01% (v/v) Tween. After shaking, the plate was incubated for 15 min at RT. To start the reaction, 10 μL 2-arachidonoylglycerol in assay buffer was added. The final concentrations in the assay was 50 pM MAGL and 8 μM 2-arachidonoylglyerol. After shaking and 30 min incubation at RT, the reaction was quenched by the addition of 40 μL of acetonitrile containing 4 μM of d8-arachidonic acid. The amount of arachidonic acid was traced by an online SPE system (Agilent Rapidfire) coupled to a triple quadrupole mass spectrometer (Agilent 6460). A C18 SPE cartridge (G9205A) was used in an acetonitrile/water liquid setup. The mass spectrometer was operated in negative electrospray mode following the mass transitions 303.1→259.1 for arachidonic acid and 311.1→267.0 for d8-arachidonic acid. The activity of the compounds was calculated based on the ratio of intensities [arachidonic acid/d8-arachidonic acid].

The term IC50 denotes the midpoint of a concentration-inhibition curve. Lower therefore signals greater potency. Turning to `O=C1CO[C@H]2CCN(C(=O)N3C[C@@H]4[C@@H](COc5ccc(C(F)(F)F)cc5F)[C@@H]4C3)C[C@H]2N1` [Example 25, (4aR,8aS)-6-[(1R,5S,6r)-6-[[2-fluoro-4-(trifluoromethyl)phenoxy]methyl]-3-azabicyclo[3.1.0]hexane-3-carbonyl]-4,4a,5,7,8,8a-hexahydropyrido[4,3-b][1,4]oxazin-3-one], the IC50 was 32 nM.

`O=C1CO[C@H]2CCN(C(=O)N3C4CCC3CC(COc3ccc(F)cc3Cl)C4)C[C@H]2N1` (stereo partly drawn) [Example 26, (4aR,8aS)-6-[3-[(2-chloro-4-fluoro-phenoxy)methyl]-8-azabicyclo[3.2.1]octane-8-carbonyl]-4,4a,5,7,8,8a-hexahydropyrido[4,3-b][1,4]oxazin-3-one] displayed an IC50 of 3690 nM. For the compound `O=C1CO[C@@H]2CCN(C(=O)N3CC4CCC(C3)C4COc3ccc(F)cc3Cl)C[C@@H]2N1` (stereo partly drawn) [Example 27, (4aS,8aR)-6-[8-[(2-chloro-4-fluoro-phenox)methyl]-3-azabicyclo[3.2.1]octane-3-carbonyl]-4,4a,5,7,8,8a-hexahydropyrido[4,3-b][1,4]oxazin-3-one], the IC50 worked out at 670 nM.

Turning to “(4aR,8aS)-6-[rel-(1R,4R,5S)-5- [(5-chloro-4-cyclopropyl-2- pyridyl)methoxy]-2- azabicyclo[2.2.1]heptane-2- carbonyl]-4,4a,5,7,8,8a- hexahydropyrido[4,3- b][1,4]oxazin-3-one [Example 10]”, inhibition was half-maximal at 16.2 nM (IC50). The compound “(4aR,8aS)-6-[rel-(1R,4R,5S)-5- [(5-chloro-4-cyclopropyl-2- pyridyl)methoxy]-2- azabicyclo[2.2.1]heptane-2- carbonyl]-4,4a,5,7,8,8a- hexahydropyrido[4,3- b][l,4]oxazin-3-one [Example 11]” gave an IC50 of 82.5 nM. For “(4aR,8aS)-6-[rel-(1R,4R,5S)-5- [[2-fluoro-4- (trifluoromethyl)phenyl]methoxy]- 2-azabicyclo[2.2.1]heptane-2- carbonyl]-4,4a,5,7,8,8a- hexahydropyrido[4,3- b][1,4]oxazin-3-one [Example 20]” the value was 9.7 nM; for “(4aR,8aS)-6-[rel-(1R,4R,5S)-5- [[2-fluoro-4- (trifluoromethyl)phenyl]methoxy]- 2-azabicyclo[2.2.1]heptane-2- carbonyl]-4,4a,5,7,8,8a- hexahydropyrido[4,3- b][1,4]oxazin-3-one [Example 21]”, 18.6 nM.
